In US10604509B2, “Nrf2 regulators” (GlaxoSmithKline Intellectual Property Development Limited, priority 2015, dated 2020):
Where a name gives a salt, the structure may show the parent alone.

Tested on: NQO1 specific enzyme activity in BEAS-2B cells
Experiment: BEAS-2B NQO1 MTT assay
Assay type: cell-based
Settings: Homo sapiens, BEAS-2B, 48 h, BEAS-2B cells, 48 hours with compound, MTT readout; read-out: EC50 of NQO1 specific activity induction
In short: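 BEAS-2B cells treated with compound 48 h at 37° C, 5% CO2, then lysed; NQO1 activity in lysate measured kinetically by MTT cocktail at Absorbance 570 nm over 30 min. EC50 for induction from Delta OD/min versus log concentration, 3-parameter fit; Cell Titer Glo run on lysate aliquot.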

CC[C@@H]1CN(Cc2cc(C(CC(=O)O)c3ccc4c(nnn4C)c3C)ccc2C)Cc2ccccc2O1 (stereo partly drawn) [Example 73, 3-(1,4-Diemthyl-1H-benzo[d][1,2,3]triazol-5-yl)-3-(3-(((R)-2-ethyl-2,3-dihydrobenzo[f][1,4]oxazepin-4(5H)-yl)methyl)-4-methylphenyl)propanonic acid, formic acid salt]
EC50: 100 to 1000 nM

Cc1ccc([C@@H](c2ccc3c(nnn3C)c2C)C(C)(C)C(=O)O)cc1Cn1ccnc1CN1CCCCC1 [Example 150, (S)-3-(1,4-Dimethyl-1H-benzo[d][1,2,3]triazol-5-yl)-2,2-dimethyl-3-(4-methyl-3-((2-(piperidin-1-ylmethyl)-1H-imidazol-1-yl)methyl)phenyl) propanoic acid]
EC50: < 1 nM

Cc1ccc(C(c2ccc3c(nnn3C)c2C)C(C)(C)C(=O)O)cc1CN1Cc2cccc(F)c2OC(C)(C)C1 (centres unmarked) [Example 35, 3-(1,4-Dimethyl-1H-benzo[d][1,2,3]triazol-5-yl)-3-(3-((9-fluoro-2,2-dimethyl-2,3-dihydrobenzo[f][1,4]oxaz-epin-4(5H)-yl)methyl)-4-methylphenyl)-2,2-dimethylpropanoic acid]
EC50: 1 to 10 nM

CCn1nnc2c(F)c([C@H](CC(=O)O)c3ccc(C)c(CN4Cc5ccccc5OC(C)(C)C4)c3)ccc21 [Example 65, (R)-3-(3-((2,2-Dimethyl-2,3-dihydrobenzo[f][1,4]oxazepin-4(5H)-yl)methyl)-4-methylphenyl)-3-(1-ethyl-4-fluoro-1H-benzo[d][1,2,3]triazol-5-yl)propanoic Acid, Hydrochloride]
EC50: 10 to 100 nM

CC[C@@H]1CN(Cc2cc([C@H](c3ccc4c(nnn4CC)c3C)[C@H](C)C(=O)O)ccc2C)Cc2cnccc2O1 [Example 197, (2S,3R)-3-(3-(((R)-2-Ethyl-2,3-dihydropyrido[3,4-f][1,4]oxazepin-4(5H)-yl)methyl)-4-methylphenyl)-3-(1-ethyl-4-methyl-1H-benzo[d][1,2,3]triazol-5-yl)-2-methylpropanoate, Sodium salt]
EC50: 10 to 100 nM

CCc1nc(C2CCCCN2Cc2cc(C(CC(=O)O)c3ccc4c(nnn4C)c3C)ccc2C)no1 (centres unmarked) [Example 12, Ammonium 3-(1,4-dimethyl-1H-benzo[d][1,2,3]triazol-5-yl)-3-(3-((2-(5-ethyl-1,2,4-oxadiazol-3-yl)piperidin-1-yl)methyl)-4-methylphenyl)propanoate]
EC50: 100 to 1000 nM

Cc1ccc(C(CC(=O)O)c2ccc3c(nnn3C)c2C)cc1Cn1ccnc1CN1CCCC1 (centres unmarked) [Example 153, 3-(1,4-Dimethyl-1H-benzo[d][1,2,3]triazol-5-yl)-3-(4-methyl-3-((2-(pyrrolidin-1-ylmethyl)-1H-imidazol-1-yl)methyl)phenyl)propanoic Acid, Formic Acid Salt]
EC50: 1000 to 10000 nM

Cc1ccc(C(CC(=O)O)c2ccc3c(nnn3C)c2C)cc1Cn1ccnc1CN1CCCCC1 (centres unmarked) [Example 154, 3-(1,4-dimethyl-1H-benzo[d][1,2,3]triazol-5-yl)-3-(4-methyl-3-((2-(piperidin-1-ylmethyl)-1H-imidazol-1-yl)methyl)phenyl)propanoic Acid, Trifluoroacetic Acid Salt]
EC50: 100 to 1000 nM

Cc1ccc([C@H](CC(=O)O)c2ccc3c(nnn3C)c2C)cc1CN1Cc2ccncc2OC(C)(C)C1 [Example 264, (S)-3-(1,4-dimethyl-1H-benzo[d][1,2,3]triazol-5-yl)-3-(3-((2,2-dimethyl-2,3-dihydropyrido[4,3-f][1,4]oxazepin-4(5H)-yl)methyl)-4-methylphenyl)propanoic acid]
EC50: 1000 to 10000 nM

Cc1c(C(CC(=O)O)c2ccc(Cl)c(CN3Cc4ncccc4OC(C)(C)C3)c2)ccc2c1nnn2C (single isomer, unassigned; isomer 1) [Example 262]
EC50: 10 to 100 nM

Cc1ccc2c(c1)CN(Cc1cc([C@H](CC(=O)O)c3ccc4c(nnn4C)c3C)ccc1C)CC(C)(C)O2 [Example 176, (S)-3-(1,4-Dimethyl-1H-benzo[d][1,2,3]triazol-5-yl)-3-(4-methyl-3-((2,2,7-trimethyl-2,3-dihydrobenzo[f][1,4]oxazepin-4(5H)-yl)methyl)phenyl) propanoic acid]
EC50: 10 to 100 nM

Cc1c(C(CC(=O)O)c2ccc(Cl)c(CN3CCCC(O)C3)c2)ccc2c1nnn2C (centres unmarked) [Example 161, 3-(4-chloro-3-((3-hydroxypiperidin-1-yl)methyl)phenyl)-3-(1,4-dimethyl-1H-benzo[d][1,2,3]triazol-5-yl)propanoic Acid]
EC50: 1000 to 10000 nM

Cc1ccc(C(CC(=O)O)c2ccc3c(nnn3C)c2C)cc1CN1Cc2ccc(C#N)cc2OC(C)(C)C1 (single isomer, unassigned) [Example 173]
EC50: 10 to 100 nM

Cc1c(C(CC(=O)O)c2ccc(F)c(CN3Cc4ccccc4O[C@@H](C)C3)c2)ccc2c1nnn2C (stereo partly drawn) [Example 95, 3-(1,4-Dimethyl-1H-benzo[d][1,2,3]triazol-5-yl)-3-(4-fluoro-3-(((S)-2-methyl-2,3-dihydrobenzo[f][1,4]oxazepin-4(5H)-yl)methyl)phenyl)propanoic Acid, Formic Acid Salt]
EC50: 100 to 1000 nM

CC[C@@H]1CN(Cc2cc(C(c3ccc4c(nnn4C)c3C)C(C)(C)C(=O)O)cnc2C)Cc2cnccc2O1 (stereo partly drawn) [Example 213, 3-(1,4-Dimethyl-1H-benzo[d][1,2,3]triazol-5-yl)-3-(5-(((R)-2-ethyl-2,3-dihydropyrido[3,4-f][1,4]oxazepin-4(5H)-yl)methyl)-6-methylpyridin-3-yl)-2,2-dimethylpropanoic acid, Trifluoroacetic Acid Salt]
EC50: 100 to 1000 nM

CCOC(=O)C(C)(C)[C@@H](c1ccc(C)c(CN2Cc3cnccc3O[C@H](CC)C2)c1)c1ccc2c(nnn2C)c1C [Example 257, (S)-ethyl 3-(1,4-dimethyl-1H-benzo[d][1,2,3]triazol-5-yl)-3-(3-(((R)-2-ethyl-2,3-dihydropyrido[3,4-f][1,4]oxazepin-4(5H)-yl)methyl)-4-methylphenyl)-2,2-dimethylpropanoate]
EC50: 100 to 1000 nM

CC[C@@H]1CN(Cc2cc(C(CC(=O)O)c3ccc(F)cc3F)ccc2C)Cc2ccccc2O1 (stereo partly drawn) [Example 117, 3-(2,4-Difluorophenyl)-3-(3-(((R)-2-ethyl-2,3-dihydrobenzo[f][1,4]oxazepin-4(5H)-yl)methyl)-4-methylphenyl)propanoic Acid, Formic Acid Salt]
EC50: 1000 to 10000 nM

Cc1ccc(C(c2ccc3c(nnn3C)c2C)C(C)(C)C(=O)O)cc1Cn1ccnc1CN1C2CCCC1CC2 (centres unmarked) [Example 156, 3-(3-((2-(8-Azabicyclo[3.2.1]octan-8-ylmethyl)-1H-imidazol-1-yl)methyl)-4-methylphenyl)-3-(1,4-dimethyl-1H-benzo[d][1,2,3]triazol-5-yl)-2,2-dimethylpropanoic Acid, Trifluoroacetic Acid Salt]
EC50: 10 to 100 nM

CCC1CN(Cc2cc(C(CC(=O)O)c3ccc4c(nnn4C)c3C)ccc2C)Cc2ccc(Br)cc2O1 (centres unmarked) [Example 82, 3-(3-((8-Bromo-2-ethyl-2,3-dihydrobenzo[f][1,4]oxazepin-4(5H)-yl)methyl)-4-methylphenyl)-3-(1,4-dimethyl-1H-benzo[d]-[1,2,3]triazol-5-yl)propanoic acid]
EC50: 10 to 100 nM

CC[C@@H]1CN(Cc2cc([C@H](CC(=O)O)c3ccc4c(nnn4CC)c3C)ccc2C)Cc2ccccc2O1 [Example 68, (S)-3-(3-(((R)-2-Ethyl-2,3-dihydrobenzo[f][1,4]oxazepin-4(5H)-yl)methyl)-4-methylphenyl)-3-(1-ethyl-4-methyl-1H-benzo[d][1,2,3]triazol-5-yl)propanoic Acid, Formic Acid Salt]
EC50: 10 to 100 nM

CC[C@@H]1CN(Cc2cc(C(CCc3cn(CC)nn3)C(C)C(=O)O)ccc2C)Cc2ncccc2O1 (stereo partly drawn) [Example 224, 5-(1-Ethyl-1H-1,2,3-triazol-4-yl)-3-(3-(((R)-2-ethyl-2,3-dihydropyrido[2,3-f][1,4]oxazepin-4(5H)-yl)methyl)-4-methylphenyl)-2-methylpentanoic Acid, 0.20 Formic Acid Salt]
EC50: 100 to 1000 nM

CC[C@@H]1CN(Cc2cc(C(CC(=O)O)c3ccc4c(nnn4C)c3C)ccc2C)Cc2cccc(F)c2O1 (stereo partly drawn) [Example 80, 3-(1,4-Diemthyl-1H-benzo[d][1,2,3]triazol-5-yl)-3-(3-(((R)-2-ethyl-9-fluoro-2,3-dihydrobenzo[f][1,4]oxazepin-4(5H)-yl)methyl)-4-methylphenyl)propanoic acid, formic acid salt]
EC50: 10 to 100 nM

CC[C@@H]1CN(Cc2cc(C(CC(=O)O)c3ccc4c(nnn4C)c3C)ccc2C)Cc2c(F)cccc2O1 (stereo partly drawn) [Example 83, 3-(1,4-Dimethyl-1H-benzo[d][1,2,3]triazol-5-yl)-3-(3-(((R)-2-ethyl-6-fluoro-2,3-dihydrobenzo[f][1,4]oxazepin-4(5H)-yl)methyl)-4-methylphenyl)propanoic acid]
EC50: 100 to 1000 nM

Cc1ccc(C(CC(=O)O)c2ccc3c(nnn3C)c2C)cc1CN1Cc2ccccc2OC(C)(C)C1 (centres unmarked) [Example 89, 3-(1,4-Diemthyl-1H-benzo[d][1,2,3]triazol-5-yl)-3-(3-((2,2-dimethyl-2,3-dihydrobenzo[f][1,4]oxazepin-4(5H)-yl)methyl)-4-methylphenyl)propanoic acid]
EC50: 10 to 100 nM

CCC1CN(Cc2cc(C(CC(=O)O)c3ccc4c(nnn4C)c3C)ccc2C)Cc2cc(F)ccc2O1 (centres unmarked) [Example 87, 3-(1,4-Dimethyl-1H-benzo[d][1,2,3]triazol-5-yl)-3-(3-((2-ehtyl-7-fluoro-2,3-dihydrobenzo[f][1,4]oxazepin-4(5H)-yl)methyl)-4-methylphenyl)propanoic acid]
EC50: 10 to 100 nM

CCC1c2cccn2CCN1Cc1cc(C(CC(=O)O)c2ccc3c(nnn3C)c2C)ccc1C (centres unmarked) [Example 19, 3-(1,4-dimethyl-1H-benzo[d][1,2,3]triazol-5-yl)-3-(3-((1-ethyl-3,4-dihdyropyrrolo[1,2-a]pyrazin-2(1H)-yl)methyl)-4-methylphenyl)propanoic acid, formic acid salt]
EC50: 1000 to 10000 nM
